Experimental findings from patent US11414422B2, “Substituted pyrido[4,3-b]indoles and azepino[4,5-b]indoles as inhibitors of cGAS” (The Rockefeller University, priority 2018, dated 2022) are described below.

Usually IC50 stands for the concentration that inhibits the measured activity by half.

The assay deals with T1, h-cGAS (Homo sapiens, UniProt Q8N884).
T1 construct: The final concentration of full-length h-cGAS, dsDNA, ATP, and GTP were 100 nM
T1 sequence (Q8N884 whole entry): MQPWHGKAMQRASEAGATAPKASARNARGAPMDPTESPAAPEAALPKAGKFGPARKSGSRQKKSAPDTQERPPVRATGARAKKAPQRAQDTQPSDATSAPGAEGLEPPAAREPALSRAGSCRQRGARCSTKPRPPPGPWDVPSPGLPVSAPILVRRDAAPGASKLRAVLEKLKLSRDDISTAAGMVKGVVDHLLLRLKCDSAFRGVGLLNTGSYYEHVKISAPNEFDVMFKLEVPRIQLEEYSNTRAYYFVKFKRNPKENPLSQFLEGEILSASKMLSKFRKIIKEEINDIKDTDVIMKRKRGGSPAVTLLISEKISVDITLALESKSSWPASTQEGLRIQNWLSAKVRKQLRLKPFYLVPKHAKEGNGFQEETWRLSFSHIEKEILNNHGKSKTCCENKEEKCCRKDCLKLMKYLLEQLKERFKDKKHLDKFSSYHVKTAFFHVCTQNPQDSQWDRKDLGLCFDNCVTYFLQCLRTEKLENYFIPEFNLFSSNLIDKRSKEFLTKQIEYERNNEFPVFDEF
Nature of the assay: cGAS biochemical assay, RapidFire 365 mass spectrometry (RF-MS). As to conditions: full-length h-cGAS 100 nM, dsDNA 25 nM, ATP and GTP 100 μM, 7 h at RT.
Turning to `Cc1cncc(-c2cc(Cl)c(Cl)c3[nH]c4c(c23)CN(C(=O)CO)CC4)c1` [TDI-008447], the IC50 was determined as 24.9 nM. That is a double-digit nanomolar value.
In turn, `COc1ncccc1-c1cc(Cl)c(Cl)c2[nH]c3c(c12)CN(C(=O)CO)CC3` [TDI-008110] came in with an IC50 of 2970 nM.
Molecule `COc1cncc(-c2cc(Cl)c(Cl)c3[nH]c4c(c23)CN(C(=O)CO)CC4)c1` [TDI-008107] came in with an IC50 of 52.4 nM.
Under `O=C(CO)N1CCc2[nH]c3c(Cl)c(Cl)cc(CC4CCCC4)c3c2C1` [TDI-008439] stands 663 nM.
Under `C[C@H]1CN(C(=O)CO)Cc2c1[nH]c1c(Cl)c(Cl)ccc21` [TDI-007575] stands 174 nM.
Then `N#Cc1cc(Cl)c(Cl)c2[nH]c3c(c12)CN(C(=O)CO)CC3` [TDI-007586], with 352 nM; and `O=C(CO)N1CCc2[nH]c3c(F)c(Cl)ccc3c2C1` [TDI-006340], with 129 nM.
The molecule `COc1cnccc1-c1cc(Cl)c(Cl)c2[nH]c3c(c12)CN(C(=O)CO)CC3` [TDI-008109] showed an IC50 of 2330 nM.
`COCC(=O)N1CCc2c(c3cc(Cl)cc(Cl)c3n2CC(F)(F)F)C1` [TDI-005021] gave an IC50 of 13900 nM.
Take `O=C(CO)N1CCc2[nH]c3c(Cl)c(Cl)cc(-c4ccc(F)cc4)c3c2C1` [TDI-008089]: the IC50 was determined as 64.4 nM. Compared with the last molecule, the IC50 is about 220-fold lower.
Then `O=C(CO)N1CCc2[nH]c3c(F)c(Br)ccc3c2C1` [TDI-006529, 1-(7-Bromo-6-fluoro-1,3,4,5-tetrahydro-2H-pyrido[4,3-b]indol-2-yl)-2-hydroxyethan-1-one], with 39 nM; and `Nc1ncccc1-c1cc(Cl)c(Cl)c2[nH]c3c(c12)CN(C(=O)CO)CC3` [TDI-008086], with 2050 nM; and `Cc1nc2ccc(-c3cc(Cl)c(Cl)c4[nH]c5c(c34)CN(C(=O)CO)CC5)cc2n1C` [TDI-008460], with 830 nM.
Then `NC(=O)c1cccc(-c2cc(Cl)c(Cl)c3[nH]c4c(c23)CN(C(=O)CO)CC4)c1` [TDI-008118], with 76.8 nM.
Then `Cc1cc(-c2cc(Cl)c(Cl)c3[nH]c4c(c23)CN(C(=O)CO)CC4)ccn1` [TDI-008445], with 35 nM; and `CNc1ccc(-c2cc(Cl)c(Cl)c3[nH]c4c(c23)CN(C(=O)CO)CC4)cn1` [TDI-008101], with 105 nM; and `O=C(CO)N1CCc2[nH]c3c(Cl)c(Cl)cc(CN4CCCCC4)c3c2C1` [TDI-008441], with 5220 nM.
For `O=C(CO)N1CCc2[nH]c3c(Cl)c(Cl)cc(-c4cccs4)c3c2C1` [TDI-008081], the IC50 came out at 47.9 nM.
Then `Cn1nccc1-c1cc(Cl)c(Cl)c2[nH]c3c(c12)CN(C(=O)CO)CC3` [TDI-008444], with 3240 nM; and `Cc1[nH]ncc1-c1cc(Cl)c(Cl)c2[nH]c3c(c12)CN(C(=O)CO)CC3` [TDI-008076], with 11400 nM.
The molecule `O=C(CO)N1CCc2[nH]c3c(Cl)c(F)ccc3c2C1` [TDI-006359] showed an IC50 of 440 nM. This IC50 is about 26-fold lower than that of the molecule before.
Under `CNc1ncc(-c2cc(Cl)c(Cl)c3[nH]c4c(c23)CN(C(=O)CO)CC4)cn1` [TDI-008111] stands 268 nM.
`Nc1ccccc1-c1cc(Cl)c(Cl)c2[nH]c3c(c12)CN(C(=O)CO)CC3` [TDI-008082] showed an IC50 of 322 nM.
Regarding `Cc1nc(C)c(-c2cc(Cl)c(Cl)c3[nH]c4c(c23)CN(C(=O)CO)CC4)s1` [TDI-008113], the IC50 is 962 nM.
In turn, `COCC(=O)N1CCc2c(c3c(-c4cn[nH]c4)cc(Cl)c(Cl)c3n2C)C1` [TDI-008026] displayed an IC50 of 203 nM.
As for `O=C(CO)N1CCc2[nH]c3c(F)c(Cl)c(N4CCC4)cc3c2C1` [TDI-007560], the IC50 was found to be 6740 nM.
In the case of `O=C(CO)N1CCc2[nH]c3c(Cl)c(Cl)cc(CN4CCOCC4)c3c2C1` [TDI-008442], the midpoint of inhibition, the IC50, lay at 706 nM. Compared with the last molecule, the IC50 is about 9.5-fold lower.
Then `Cn1c2c(c3c(-c4cn[nH]c4)cc(Cl)c(Cl)c31)CN(C(=O)CO)CC2` [TDI-007945], with 125 nM.
Turning to `CC1CN(C(=O)CO)Cc2c1[nH]c1c(Cl)c(Cl)ccc21` (centres unmarked) [TDI-007553], it took 300 nM to reach half-maximal inhibition (IC50).
Molecule `O=C(CO)N1CCc2[nH]c3c(Cl)c(Cl)cc(-c4ccoc4)c3c2C1` [TDI-008069] registered an IC50 of 84.8 nM. Against the preceding molecule, the IC50 is about 3.5-fold lower.
Then `O=C1COc2cc(-c3cc(Cl)c(Cl)c4[nH]c5c(c34)CN(C(=O)CO)CC5)ccc2N1` [TDI-008462], with 1200 nM.
Under `C#Cc1ccc2c3c([nH]c2c1F)CCN(C(=O)CO)C3` [TDI-007433] stands 1450 nM.
`CN1CC=C(c2cc(Cl)c(Cl)c3[nH]c4c(c23)CN(C(=O)CO)CC4)CC1` [TDI-008449] yielded an IC50 of 420 nM.
`O=C(CO)N1CCc2[nH]c3c(Cl)c(Cl)cc(-c4ccc5c(c4)OCO5)c3c2C1` [TDI-008457] gave an IC50 of 44.6 nM.
`COCC(=O)N1CCc2[nH]c3cc(Br)ccc3c2C1` [TDI-005855] displayed an IC50 of 1740 nM.
Then `COc1cccc(-c2cc(Cl)c(Cl)c3[nH]c4c(c23)CN(C(=O)CO)CC4)n1` [TDI-008102], with 40.2 nM; and `COc1cc2c3c([nH]c2c(Cl)c1Cl)CCN(C(=O)CO)C3` [TDI-006528], with 31 nM; and `COCC(=O)N1CCc2[nH]c3c(Cl)cc(Cl)cc3c2C1` [TDI-004576], with 3080 nM.
Under `O=C(CO)N1CCc2[nH]c3c(Cl)c(Cl)cc(-c4cccc(F)c4)c3c2C1` [TDI-008091] stands 31 nM; under `COc1ncc(-c2cc(Cl)c(Cl)c3[nH]c4c(c23)CN(C(=O)CO)CC4)s1` [TDI-008114], 62.2 nM; under `O=C(CO)N1CCc2[nH]c3c(Cl)c(Cl)cc(-c4cnc(C(F)(F)F)nc4)c3c2C1` [TDI-008451], 9780 nM.
Under `O=C(CO)N1CCc2[nH]c3c(Cl)c(Cl)cc(-c4ccccc4O)c3c2C1` [TDI-008084] stands 258 nM.
Turning to `Cc1ccc2c3c([nH]c2c1C)CCN(C(=O)CO)C3` [TDI-006339], the IC50 worked out at 7630 nM.
Under `C[C@@H]1CCN(c2cc(Cl)c(F)c3[nH]c4c(c23)CN(C(=O)CO)CC4)C1` [TDI-008862] stands 478 nM; under `CCOc1c(Cl)cc(-c2ccn(C)n2)c2c3c([nH]c12)CCN(C(=O)CO)C3` [TDI-008797], 351 nM; under `O=C(CO)N1CCc2[nH]c3c(Cl)c(Cl)cc(-c4cccc(O)c4)c3c2C1` [TDI-008085], 30.9 nM.
Then `COCC(=O)N1CCc2[nH]c3c(C#N)c(Cl)ccc3c2C1` [TDI-006182], with 570 nM; and `O=C(CO)N1CCc2[nH]c3c(Cl)c(Cl)cc(-c4cncc(C(F)(F)F)c4)c3c2C1` [TDI-008455], with 154 nM; and `O=C(CO)N1CCc2[nH]c3c(Cl)c(Cl)cc(Cc4ccc(-n5cccn5)cc4)c3c2C1` [TDI-008443], with 586 nM.
`COCC(=O)N1CCc2c(c3cc(Cl)cc(Cl)c3n2C)C1` [TDI-004581] came in with an IC50 of 2410 nM.
Under `O=C(CO)N1CCc2[nH]c3c(Cl)c(Cl)cc(C4=CCOCC4)c3c2C1` [TDI-008079] stands 890 nM.
Under `N#Cc1ccc2c3c([nH]c2c1C#N)CCN(C(=O)CO)C3` [TDI-006932] stands > 25000 nM; under `COCC(=O)N1CCc2[nH]c3c(Cl)c(Br)ccc3c2C1` [TDI-005854], 198 nM; under `O=C(C1CCCO1)N1CCc2[nH]c3c(Cl)c(Cl)ccc3c2C1` (centres unmarked) [TDI-005745], 3080 nM.
`N#Cc1ccccc1-c1cc(Cl)c(Cl)c2[nH]c3c(c12)CN(C(=O)CO)CC3` [TDI-008097]: it took 42.2 nM to reach half-maximal inhibition (IC50).
On to `O=C(CO)N1CCc2[nH]c3c(Cl)c(Br)ccc3c2C1` [TDI-006354], for which the IC50 turned out to be 43 nM.
Then `O=C(CO)N1CCc2[nH]c3c(Cl)c(Cl)cc(-c4ccc(S(=O)(=O)NCCCO)cc4)c3c2C1` [TDI-008464], with 3910 nM.
Molecule `COCCc1cc(Cl)c(Cl)c2[nH]c3c(c12)CN(C(=O)CO)CC3` [TDI-008438] registered an IC50 of 112 nM.
As to `Cn1c2c(c3ccc(Br)c(F)c31)CN(C(=O)CO)CC2` [TDI-008061], half-maximal inhibition (IC50) required 131 nM.
In turn, `O=C(CO)N1CCc2[nH]c3c(Cl)c(Cl)cc(-c4cncc(CO)c4)c3c2C1` [TDI-008450] had an IC50 of 54.5 nM.
Then `O=C(CO)N1CCc2[nH]c3c(Cl)c(Cl)cc(-c4ccncc4)c3c2C1` [TDI-008072], with 97.5 nM.
Then `Cc1cc(-c2cc(Cl)c(Cl)c3[nH]c4c(c23)CN(C(=O)CO)CC4)n(C)n1` [TDI-008095], with 929 nM.
Consider `COCC(=O)N1CCc2[nH]c3c(Cl)cccc3c2C1` [TDI-005323], for which half-maximal inhibition (IC50) required 5860 nM.
Under `CNC(=O)c1cc(Cl)c(F)c2[nH]c3c(c12)CN(C(=O)CO)CC3` [TDI-008520] stands 1040 nM; under `Cc1ccc2c3c([nH]c2c1Cl)CCN(C(=O)CO)C3` [TDI-006358], 597 nM.
Under `COCC(=O)N1CCc2[nH]c3c(Cl)ccc(Cl)c3c2C1` [TDI-005325] stands 3230 nM; under `COc1cc(Cl)c(Cl)c2[nH]c3c(c12)CN(C(=O)CO)CC3` [TDI-006622], 49 nM.
The molecule `O=C(CO)N1CCc2[nH]c3c(Cl)c(Cl)cc(-c4cnn(C(F)F)c4)c3c2C1` [TDI-008115] showed an IC50 of 45.1 nM. This IC50 and that of the molecule before are within 1.5-fold of each other.
The molecule `Cn1c(=O)[nH]c2cc(-c3cc(Cl)c(Cl)c4[nH]c5c(c34)CN(C(=O)CO)CC5)ccc21` [TDI-008461] had an IC50 of 344 nM.
Take `O=C(CO)N1CCc2[nH]c3c(Cl)c(Cl)cc(CN4CCCC4)c3c2C1` [TDI-008440]: it took 2230 nM to reach half-maximal inhibition (IC50). This IC50 is about 6.5-fold higher than that of the molecule before.
Under `COc1ccc(-c2cc(Cl)c(Cl)c3[nH]c4c(c23)CN(C(=O)CO)CC4)nc1` [TDI-008105] stands 107 nM; under `O=C(CO)N1CCc2[nH]c3c(Cl)c(Cl)cc(-c4ccsc4)c3c2C1` [TDI-008080], 66.8 nM; under `N#Cc1c(Cl)ccc2c3c([nH]c12)CCN(C(=O)CO)C3` [TDI-006931], 402 nM.
On to `COc1cc(-c2cc(Cl)c(Cl)c3[nH]c4c(c23)CN(C(=O)CO)CC4)ccn1` [TDI-008106], for which the IC50 amounted to 49.3 nM.
Then `O=C(CO)N1CCc2[nH]c3c(F)c(Cl)c(F)cc3c2C1` [TDI-007544], with 166 nM; and `COCCOCC(=O)N1CCc2[nH]c3c(Cl)c(Cl)ccc3c2C1` [TDI-005719], with 3290 nM.
Then `O=C(CO)N1CCc2[nH]c3c(Cl)c(Cl)cc(C4=CCCCO4)c3c2C1` [TDI-008078], with 31.8 nM.
